# Reference: US20240024403A1, “Compositions and Methods for Managing Weight” (Unigen, Inc., priority 2012, published 2024)
# Experiment: High fat diet induced obesity (DIO) mouse model
# Format: in vivo, C57CL/6J mice
# Conditions: for Weight (total body weight) / Total Weight: in g (unit assumed)
# Description: C57CL/6J mice aged 4-6 weeks (Korea Research Institute of Bioscience & Biotechnology, Ohchang, Korea) were housed in Polycarbonate cages (five mice per cage) in a room with a 12 hr:12 hr light-dark cycle and an ambient temperature of 24° C. All the mice were fed a commercial chow diet for 1 week after arrival in the animal facility. Mice were then divided into normal and obesity groups and fed with normal diet (ND) and high fat diets (HFD) respectively. The HFD group was divided into multiple treatment groups: a high fat diet vehicle group (HFD), an orlistat (purchased as OTC drug Alli®) positive control treatment group (ORI, 40 mg/kg of animal weight, 2 times/day) and optionally a sibutramine positive control treatment group (10 mg/kg, 1 time/day). The HFD contained 340 g of fat/kg of HFD (310 g lard plus 30 g soybean oil; Harlan Laboratories, USA). The HFD was formulated to provide 60% of the total energy generated by the diet from fat by replacing carbohydrate energy with lard and soybean oil, whereas the normal diet (ND) group was fed a diet providing only 18% of the total diet energy from fat(Harlan Laboratories, USA).
# Body weight was measured once each week and feed intake was measured twice per week. At the end of the experimental period, following a 12 hr. fasting period, the animals were anesthetized with ether, and blood was drawn from the abdominal vein. Liver and kidney and adipose tissues (epididymal, retroperitoneal, perirenal adipose tissues) were removed from each animal, rinsed with physiological saline, and weighed. Serum concentrations of glucose, total cholesterol, triglycerides, and LDL-cholesterol were determined using automatic analyzer (INTEGRA 400, Roche, Germany). Statistical significance of test results was measured using the Student's t-test.
# [1] = DIO mice blood biochemistry, SIB 10 mg/kg, ORI 40 mg/kg, Mutamba extract 32 (G1) 1000 mg/kg, mean
# [2] = DIO mice blood biochemistry, SIB 10 mg/kg, ORI 40 mg/kg, Mutamba extract 33-2 G1 1000 mg/kg, mean
# [3] = DIO mice liver pathology score, SIB 10 mg/kg, ORI 40 mg/kg, Mutamba extract 32 (G1) 1000 mg/kg, mean
# [4] = DIO mice, ORI 40 mg/kg, seven week study, mean
# [5] = DIO mice, biochemistry parameters, G3, G4 1000 mg/kg oral two times per day
# [6] = DIO mice, blood at end of study, ORI 40 mg/kg, mean
# [7] = DIO mice, blood at end of study, ORI 40 mg/kg, G1 300 mg/kg (Morus:Magnolia 2:1)
# [8] = DIO mice, blood at end of study, ORI 40 mg/kg, G1 1200 mg/kg (Morus:Yerba Mate 1:5)
# [9] = DIO mice, liver pathology, ORI 40 mg/kg, mean
# [10] = DIO mice, oral, seven weeks, combination (2:5) 700 mg/kg, ORI 40 mg/kg, group mean
# [11] = DIO mice, oral, week 1, ORI 40 mg/kg, G1 700 mg/kg (Morus:Rosemary 2:5)
# [12] = DIO mice, oral, week 1, ORI 40 mg/kg, G1 1200 mg/kg (Morus:Yerba Mate 1:5)
# [13] = DIO mice, oral, week 2, ORI 40 mg/kg, G1 700 mg/kg (Morus:Rosemary 2:5)
# [14] = DIO mice, oral, week 2, ORI 40 mg/kg, G1 1200 mg/kg (Morus:Yerba Mate 1:5)
compound,measurement,setting,value
"CCCCCCCCCCC[C@@H](C[C@@H]1OC(=O)[C@H]1CCCCCC)OC(=O)[C@H](CC(C)C)NC=O [ORI, orlistat]",ALT,[1],40.42 U/L
same,AST,[1],67.96 U/L
same,HDL-C,[1],78.52 mg/dL
same,LDL-C,[1],6.78 mg/dL
same,T-chol,[1],184.40 mg/dL
same,TG,[1],143.60 mg/dL
same,LDL-C,[2],7.42 mg/dL
same,T-chol,[2],182.40 mg/dL
same,TG,[2],41.20 mg/dL
same,Hepatocellular ballooning (0-2),[3],0.60
same,Lobular Inflammation (0-3),[3],1.60
same,Steatosis (0-3),[3],1.20
same,NASH (sum),"DIO mice liver pathology, sum of scores, SIB 10 mg/kg, ORI 40 mg/kg, Mutamba extract 32 (G1) 1000 mg/kg, mean",3.40
same,Food Intake,[4],3.195 g/day
same,Weight Gain,[4],0.000 g/day
same,Food Efficiency Ratio (FER),"DIO mice, ORI 40 mg/kg, seven week study, body weight gain/food intake",0.000
same,Weight Gain,"DIO mice, ORI 40 mg/kg, week 1, mean",−5.43
same,Weight Gain,"DIO mice, ORI 40 mg/kg, week 2, mean",−6.69
same,Weight Gain,"DIO mice, ORI 40 mg/kg, week 3, mean",−5.27
same,Weight Gain,"DIO mice, ORI 40 mg/kg, week 4, mean",−3.47
same,Weight Gain,"DIO mice, ORI 40 mg/kg, week 5, mean",−2.34
same,Weight Gain,"DIO mice, ORI 40 mg/kg, week 6, mean",−1.08
same,Weight Gain,"DIO mice, ORI 40 mg/kg, week 7, mean",0.02
same,ALP,[5],186.51 U/L
same,ALT,[5],35.12 U/L
same,AST,[5],62.03 U/L
same,Glu,[5],267.22 mg/dL
same,HDL-C,[5],74.22 mg/dL
same,LDL-C,[5],7.56 mg/dL
same,T-chol,[5],175.44 mg/dL
same,TG,[5],46.78 mg/dL
same,TP,[5],4.89 g/dL
same,ALT,[6],21.83 U/L
same,AST,[6],65.65 U/L
same,TG,[6],27.83 mg/dL
same,F-Glu (fasting glucose),[7],225.50 mg/dL
same,LDL-C,[7],3.30 mg/dL
same,T-Chol (total cholesterol),[7],134.00 mg/dL
same,Triglyceride,[7],62.50 mg/dL
same,F-Glu (fasting glucose),[8],225.50 mg/dL
same,LDL-C,[8],3.30 mg/dL
same,T-Chol (total cholesterol),[8],134.00 mg/dL
same,Triglyceride,[8],62.50 mg/dL
same,Hepatocellular ballooning (0-2),[9],0.67
same,Lobular Inflammation (0-3),[9],1.33
same,NASH (sum),[9],2.67
same,Steatosis (0-3),[9],0.67
same,Perirenal Fat,"DIO mice, oral, seven weeks, combination 700 mg/kg, ORI 40 mg/kg, group mean",0.43
same,Food Efficiency Ratio (FER),"DIO mice, oral, seven weeks, combination (2:5) 700 mg/kg, ORI 40 mg/kg, FER = body weight gain/food intake",0.005
same,Body Weight Gain,[10],0.012 g/day
same,Food Intake,[10],2.711 g/day
same,Weight (total body weight),"DIO mice, oral, week 0, ORI 40 mg/kg, G1 700 mg/kg (Morus:Rosemary 2:5)",42.39
same,Total Weight,"DIO mice, oral, week 0, ORI 40 mg/kg, G1 1200 mg/kg (Morus:Yerba Mate 1:5)",38.40
same,Body Weight Gain,"DIO mice, oral, week 1, ORI 40 mg/kg, G1 300 mg/kg (Morus:Magnolia 2:1)",−3.20
same,Body Weight Gain,[11],−3.56
same,Weight (total body weight),[11],38.83
same,Weight Gain,[12],−3.20
same,Total Weight,[12],35.20
same,Body Weight Gain,"DIO mice, oral, week 2, ORI 40 mg/kg, G1 300 mg/kg (Morus:Magnolia 2:1)",−4.88
same,Body Weight Gain,[13],−5.75
same,Weight (total body weight),[13],36.64
same,Weight Gain,[14],−4.88
same,Total Weight,[14],33.58
same,Body Weight Gain,"DIO mice, oral, week 3, ORI 40 mg/kg, G1 300 mg/kg (Morus:Magnolia 2:1)",−3.34
